For 24 molecules, Duration and Latency results are on record in patent US20230416258A1, “BENZ[…], AND PREPARATION METHOD THEREFOR AND USE THEREOF” (CHINA PHARMACEUTICAL UNIVERSITY, priority 2020, published 2023).

In one test the test system is KM mice. Put plainly: Test for drug-induced disappearance of righting reflex in mice. The class given is in vivo. The conditions noted are these: 15 mg/kg, single rapid bolus via tail vein. The gist of the method: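 Female KM mice (18–25 g), randomly grouped, given a single rapid bolus via tail vein. Latency (administration to loss of righting reflex) and duration (loss to recovery) recorded.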
For `COC(=O)CC[C@@H]1N=C(c2ccccc2F)c2cc(Br)ccc2-n2c(SCCN3CCCCC3)nnc21` [Compound 123, methyl (S)-3-(8-bromo-6-(2-fluorophenyl)-1-(2-((piperidin-1-yl)ethyl)thio)-4H-benzo[f][1,2,4]triazolo[4,3-a][1,4]diazepin-4-yl)propionate], the Duration stood at 1.38 min and the Latency was found to be 0.30 min.
Take `CCSc1nnc2n1-c1ccc(Br)cc1C(c1ccccn1)=N[C@H]2CCC(=O)OC` [Compound 115, methyl (S)-3-(8-bromo-6-(pyridin-2-yl)-1-ethylthio-4H-benzo[f][1,2,4]triazolo[4,3-a][1,4]diazepin-4-yl)propionate]: the Duration is given as 1.26 min and the Latency worked out at 0.18 min.

Still in this test, the particulars now being: 30 mg/kg, single rapid bolus via tail vein.
The molecule `O=C(CC[C@@H]1N=C(c2ccccc2Cl)c2cc(Cl)ccc2-n2c1n[nH]c2=S)OCCN1CCOCC1` [Compound 137, (S)-3-(8-chloro-6-(2-chlorophenyl)-1-thio-2,4-dihydro-1H-benzo[f][1,2,4]triazolo[4,3-a][1,4]diazepin-4-yl)propionic acid-2-morpholinoethyl ester] yielded a Duration of 21.45 min and a Latency of 0.67 min.
The corresponding values for `COC(=O)CC[C@@H]1N=C(c2ccccc2F)c2cc(Br)ccc2-n2c(SCCN3CCCCC3)nnc21` [Compound 123, methyl (S)-3-(8-bromo-6-(2-fluorophenyl)-1-(2-((piperidin-1-yl)ethyl)thio)-4H-benzo[f][1,2,4]triazolo[4,3-a][1,4]diazepin-4-yl)propionate] are 53.03 min and 0.23 min.
The corresponding values for `COC(=O)CC[C@@H]1N=C(c2ccccc2Cl)c2cc(Cl)ccc2-n2c(SCOP(=O)(O)O)nnc21` [Compound 111, methyl (S)-3-(8-chloro-6-(2-chlorophenyl)-1-(((phosphonooxy)methyl)thio)-4H-benzo[f][1,2,4]triazolo[4,3-a][1,4]diazepin-4-yl)propionate] are 18.36 min and 0.67 min.
The corresponding values for `COC(=O)CC[C@@H]1N=C(c2ccccc2Cl)c2cc(Cl)ccc2-n2c(SCC3=NCCN3)nnc21` [Compound 144, methyl (S)-3-(8-chloro-6-(2-chlorophenyl)-1-(((4,5-dihydro-1H-imidazol-2-yl)methyl)thio)-4H-benzo[f][1,2,4]triazolo[4,3-a][1,4]diazepin-4-yl)propionate] are 5.32 min and 0.45 min.
As for `C#CCSc1nnc2n1-c1ccc(Br)cc1C(c1ccccc1Cl)=N[C@H]2CCC(=O)OC` [Compound 79, methyl (S)-3-(8-bromo-6-(2-chlorophenyl)-1-(prop-2-yn-1-ylthio)-4H-benzo[f][1,2,4]triazolo[4,3-a][1,4]diazepin-4-yl)propionate], the Duration amounted to 6.93 min and the Latency came to 0.57 min.
`COC(=O)CC[C@@H]1N=C(c2ccccc2F)c2cc(Br)ccc2-n2c(SCCN)nnc21` [Compound 21, methyl (S)-3-(8-bromo-6-(2-fluorophenyl)-1-((2-aminoethyl)thio)-4H-benzo[f][1,2,4]triazolo[4,3-a][1,4]diazepin-4-yl)propionate] yielded a Duration of 2.83 min and a Latency of 0.35 min.
For `COC(=O)CC[C@@H]1N=C(c2ccc(F)cc2)c2ccccc2-n2c(S)nnc21` [Compound 6, methyl (S)-3-(6-(4-fluorophenyl)-1-mercapto-4H-benzo[f][1,2,4]triazolo[4,3-a][1,4]diazepin-4-yl)propionate] the same measures were 9.93 min and 0.59 min.
Molecule `COC(=O)CC[C@@H]1N=C(c2ccccc2Cl)c2cc(Cl)ccc2-n2c(S)nnc21` [Compound 2, methyl (S)-3-(8-chloro-6-(2-chlorophenyl)-1-mercapto-4H-benzo[f][1,2,4]triazolo[4,3-a][1,4]diazepin-4-yl)propionate] came in with a Duration of 5.27 min and a Latency of 0.58 min.
As for `COC(=O)CC[C@@H]1N=C(c2ccccc2F)c2cc(Cl)ccc2-n2c(SCN3CCOCC3)nnc21` [Compound 69, methyl (S)-3-(8-chloro-6-(2-fluorophenyl)-1-((morpholinomethyl)thio)-4H-benzo[f][1,2,4]triazolo[4,3-a][1,4]diazepin-4-yl)propionate], the Duration was 21.61 min and the Latency was 0.90 min.
For the molecule `COC(=O)CC[C@@H]1N=C(c2ccccc2Cl)c2cc(Br)ccc2-n2c(SCC3CC3)nnc21` [Compound 76, methyl (S)-3-(8-bromo-6-(2-chlorophenyl)-1-((cyclopropylmethyl)thio)-4H-benzo[f][1,2,4]triazolo[4,3-a][1,4]diazepin-4-yl)propionate], the Duration stood at 5.65 min and the Latency amounted to 0.76 min.
The corresponding values for `COC(=O)CC[C@@H]1N=C(c2ccccc2F)c2cc(Br)ccc2-n2c(SCCn3ccnc3)nnc21` [Compound 139, methyl (S)-3-(8-bromo-6-(2-fluorophenyl)-1-(2-((1H-imidazol-1-yl)ethyl)thio)-4H-benzo[f][1,2,4]triazolo[4,3-a][1,4]diazepin-4-yl)propionate] are 19.99 min and 0.38 min.
The corresponding values for `COC(=O)CC[C@@H]1N=C(c2ccccc2)c2ccccc2-n2c1n[nH]c2=S` [Tautomer of compound 5, methyl (S)-3-(6-phenyl-1-thio-2,4-dihydro-1H-benzo[f][1,2,4]triazolo[4,3-a][1,4]diazepin-4-yl)propionate] are 7.82 min and 0.73 min.
For `CCN(CC)CCSc1nnc2n1-c1ccc([N+](=O)[O-])cc1C(c1ccccc1Cl)=N[C@H]2CCC(=O)OC` [Compound 86, methyl (S)-3-(8-nitro-6-(2-chlorophenyl)-1-((2-(diethylamino)ethyl)thio)-4H-benzo[f][1,2,4]triazolo[4,3-a][1,4]diazepin-4-yl)propionate] the same measures were 18.62 min and 0.62 min.
For `COC(=O)CC[C@@H]1N=C(c2ccccc2Cl)c2cc(Cl)ccc2-n2c(SC(C)=O)nnc21` [Compound 38, methyl (S)-3-(8-chloro-6-(2-chlorophenyl)-1-(acetylthio)-4H-benzo[f][1,2,4]triazolo[4,3-a][1,4]diazepin-4-yl)propionate], the Duration is listed as 12.94 min and the Latency is 0.67 min.
The corresponding values for `COC(=O)CC[C@@H]1N=C(c2ccccc2Cl)c2cc(Cl)ccc2-n2c(SCC3CC3)nnc21` [Compound 75, methyl (S)-3-(8-chloro-6-(2-chlorophenyl)-1-((cyclopropylmethyl)thio)-4H-benzo[f][1,2,4]triazolo[4,3-a][1,4]diazepin-4-yl)propionate] are 6.53 min and 0.51 min.
Molecule `CCSc1nnc2n1-c1ccc(Br)cc1C(c1ccccn1)=N[C@H]2CCC(=O)OC` [Compound 115, methyl (S)-3-(8-bromo-6-(pyridin-2-yl)-1-ethylthio-4H-benzo[f][1,2,4]triazolo[4,3-a][1,4]diazepin-4-yl)propionate] registered a Duration of 5.02 min and a Latency of 0.13 min.
Turning to `CCN(CC)CCSc1nnc2n1-c1ccc(Cl)cc1C(c1ccccc1Cl)=N[C@H]2CCC(=O)OC` [Compound 84, methyl (S)-3-(8-chloro-6-(2-chlorophenyl)-1-((2-(diethylamino)ethyl)thio)-4H-benzo[f][1,2,4]triazolo[4,3-a][1,4]diazepin-4-yl)propionate], the Duration came out at 21.9 min and the Latency came out at 0.31 min.
The corresponding values for `COC(=O)CC[C@@H]1N=C(c2ccccc2)c2ccccc2-n2c(S)nnc21` [Compound 5, methyl (S)-3-(6-phenyl-1-mercapto-4H-benzo[f][1,2,4]triazolo[4,3-a][1,4]diazepin-4-yl)propionate] are 13.27 min and 1.11 min.
In turn, `COC(=O)CC[C@@H]1N=C(c2ccccc2F)c2cc(Br)ccc2-n2c(SCCN(C)C)nnc21` [Compound 134, methyl (S)-3-(8-bromo-6-(2-fluorophenyl)-1-(2-((dimethylamino)ethyl)thio)-4H-benzo[f][1,2,4]triazolo[4,3-a][1,4]diazepin-4-yl)propionate] registered a Duration of 6.54 min and a Latency of 0.27 min.

Still in this test, the particulars now being: 60 mg/kg, single rapid bolus via tail vein.
Molecule `COC(=O)CC[C@@H]1N=C(c2ccccc2F)c2cc([N+](=O)[O-])ccc2-n2c(SCCCN3CCN(CCO)CC3)nnc21` [Compound 68, methyl (S)-3-(8-nitro-6-(2-fluorophenyl)-1-((3-(4-(2-hydroxyethyl)piperazin-1-yl)propyl)thio)-4H-benzo[f][1,2,4]triazolo[4,3-a][1,4]diazepin-4-yl)propionate] came in with a Duration of 15.02 min and a Latency of 0.68 min.
For `COC(=O)CC[C@@H]1N=C(c2ccccc2F)c2cc(Br)ccc2-n2c(SCCN)nnc21` [Compound 21, methyl (S)-3-(8-bromo-6-(2-fluorophenyl)-1-((2-aminoethyl)thio)-4H-benzo[f][1,2,4]triazolo[4,3-a][1,4]diazepin-4-yl)propionate] the same measures were 6.4 min and 0.2 min.
The corresponding values for `CCN(CC)CCSc1nnc2n1-c1ccc(Br)cc1C(c1ccccc1Cl)=N[C@H]2CCC(=O)OC` [Compound 85, methyl (S)-3-(8-bromo-6-(2-chlorophenyl)-1-((2-(diethylamino)ethyl)thio)-4H-benzo[f][1,2,4]triazolo[4,3-a][1,4]diazepin-4-yl)propionate] are 13.12 min and 0.67 min.
Molecule `COC(=O)CC[C@@H]1N=C(c2ccccc2Cl)c2cc([N+](=O)[O-])ccc2-n2c(SCCCN(C)C)nnc21` [Compound 89, methyl (S)-3-(8-nitro-6-(2-chlorophenyl)-1-((3-(dimethylamino)propyl)thio)-4H-benzo[f][1,2,4]triazolo[4,3-a][1,4]diazepin-4-yl)propionate] registered a Duration of 9.88 min and a Latency of 0.83 min.
As to `C#CCSc1nnc2n1-c1ccc(Cl)cc1C(c1ccccc1F)=N[C@H]2CCC(=O)OC` [Compound 48, methyl (S)-3-(8-chloro-6-(2-fluorophenyl)-1-(prop-2-yn-1-ylthio)-4H-benzo[f][1,2,4]triazolo[4,3-a][1,4]diazepin-4-yl)propionate], the Duration is given as 8.54 min and the Latency is 1.25 min.
`COC(=O)CC[C@@H]1N=C(c2ccccc2)c2cc(Cl)ccc2-n2c(SCCCN(C)C)nnc21` [Compound 108, methyl (S)-3-(8-chloro-1-((3-(dimethylamino)propyl)thio)-6-phenyl-4H-benzo[f][1,2,4]triazolo[4,3-a][1,4]diazepin-4-yl)propionate] yielded a Duration of 11.73 min and a Latency of 0.59 min.
